{"source": "PubChem BioAssay (NCI)", "assay_in_all_cases": "inhibition of tumour cell growth, NCI panel, 48 h", "key": {"SK-MEL-28 melanoma": {"tested_on": "SK-MEL-28 melanoma"}, "SN12C renal": {"tested_on": "SN12C renal"}, "OVCAR-3 ovarian": {"tested_on": "OVCAR-3 ovarian"}, "PC-3 prostate": {"tested_on": "PC-3 prostate"}, "NCI-H522 lung": {"tested_on": "NCI-H522 lung"}, "EKVX NSCLC": {"tested_on": "EKVX NSCLC"}, "T-47D breast": {"tested_on": "T-47D breast"}, "NCI-H23 lung": {"tested_on": "NCI-H23 lung"}, "MOLT-4 leukemia": {"tested_on": "MOLT-4 leukemia"}, "HL-60(TB) leukemia": {"tested_on": "HL-60(TB) leukemia"}, "MALME-3M melanoma": {"tested_on": "MALME-3M melanoma"}, "NCI-H226 lung": {"tested_on": "NCI-H226 lung"}, "A549 NSCLC": {"tested_on": "A549 NSCLC"}, "SW-620 colon": {"tested_on": "SW-620 colon"}, "SF-295 CNS": {"tested_on": "SF-295 CNS"}, "SF-268 CNS": {"tested_on": "SF-268 CNS"}, "M14 melanoma": {"tested_on": "M14 melanoma"}, "MDA-MB-435": {"tested_on": "MDA-MB-435"}, "BT-549 breast": {"tested_on": "BT-549 breast"}, "OVCAR-4 ovarian": {"tested_on": "OVCAR-4 ovarian"}, "HOP-92 NSCLC": {"tested_on": "HOP-92 NSCLC"}, "SK-MEL-2 melanoma": {"tested_on": "SK-MEL-2 melanoma"}, "HOP-62 NSCLC": {"tested_on": "HOP-62 NSCLC"}, "A498 renal": {"tested_on": "A498 renal"}, "SNB-75 CNS": {"tested_on": "SNB-75 CNS"}, "KM12 colon": {"tested_on": "KM12 colon"}, "U251 CNS": {"tested_on": "U251 CNS"}, "OVCAR-5 ovarian": {"tested_on": "OVCAR-5 ovarian"}, "COLO 205 colon": {"tested_on": "COLO 205 colon"}}, "note": "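Method: 48-hour compound exposure of cells in 96-well plates, five concentrations, linear interpolation of endpoints. Abbreviation: GI50, concentration required for 50% inhibition of growth. TGI marks complete inhibition of growth.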", "data": [{"smiles": "COc1ccc(-c2nc(C(=O)c3ccccc3)n(CC(=O)c3ccc(Cl)cc3)c2-c2ccc(OC)cc2)cc1", "values": [{"measurement": "TGI", "setting": "SK-MEL-28 melanoma", "result": "> 100", "unit": "µM"}, {"measurement": "GI50", "setting": "SN12C renal", "result": "> 100", "unit": "µM"}, {"measurement": "TGI", "setting": "SN12C renal", "result": "> 100", "unit": "µM"}, {"measurement": "GI50", "setting": "OVCAR-3 ovarian", "result": "> 100", "unit": "µM"}, {"measurement": "TGI", "setting": "OVCAR-3 ovarian", "result": "> 100", "unit": "µM"}, {"measurement": "GI50", "setting": "PC-3 prostate", "result": "> 100", "unit": "µM"}, {"measurement": "TGI", "setting": "PC-3 prostate", "result": "> 100", "unit": "µM"}, {"measurement": "GI50", "setting": "NCI-H522 lung", "result": "> 100", "unit": "µM"}, {"measurement": "TGI", "setting": "NCI-H522 lung", "result": "> 100", "unit": "µM"}, {"measurement": "GI50", "setting": "EKVX NSCLC", "result": "> 100", "unit": "µM"}, {"measurement": "TGI", "setting": "EKVX NSCLC", "result": "> 100", "unit": "µM"}, {"measurement": "GI50", "setting": "T-47D breast", "result": "> 100", "unit": "µM"}, {"measurement": "TGI", "setting": "T-47D breast", "result": "> 100", "unit": "µM"}, {"measurement": "GI50", "setting": "NCI-H23 lung", "result": "> 100", "unit": "µM"}, {"measurement": "TGI", "setting": "NCI-H23 lung", "result": "> 100", "unit": "µM"}, {"measurement": "GI50", "setting": "MOLT-4 leukemia", "result": "> 100", "unit": "µM"}, {"measurement": "TGI", "setting": "MOLT-4 leukemia", "result": "> 100", "unit": "µM"}, {"measurement": "GI50", "setting": "HL-60(TB) leukemia", "result": 46, "unit": "µM"}, {"measurement": "TGI", "setting": "HL-60(TB) leukemia", "result": "> 100", "unit": "µM"}, {"measurement": "GI50", "setting": "MALME-3M melanoma", "result": "> 100", "unit": "µM"}, {"measurement": "TGI", "setting": "MALME-3M melanoma", "result": "> 100", "unit": "µM"}, {"measurement": "GI50", "setting": "NCI-H226 lung", "result": "> 100", "unit": "µM"}, {"measurement": "TGI", "setting": "NCI-H226 lung", "result": "> 100", "unit": "µM"}, {"measurement": "GI50", "setting": "A549 NSCLC", "result": "> 100", "unit": "µM"}, {"measurement": "TGI", "setting": "A549 NSCLC", "result": "> 100", "unit": "µM"}, {"measurement": "GI50", "setting": "SW-620 colon", "result": "> 100", "unit": "µM"}, {"measurement": "TGI", "setting": "SW-620 colon", "result": "> 100", "unit": "µM"}, {"measurement": "GI50", "setting": "SF-295 CNS", "result": "> 100", "unit": "µM"}, {"measurement": "TGI", "setting": "SF-295 CNS", "result": "> 100", "unit": "µM"}, {"measurement": "GI50", "setting": "SF-268 CNS", "result": "> 100", "unit": "µM"}, {"measurement": "TGI", "setting": "SF-268 CNS", "result": "> 100", "unit": "µM"}, {"measurement": "GI50", "setting": "M14 melanoma", "result": "> 100", "unit": "µM"}, {"measurement": "TGI", "setting": "M14 melanoma", "result": "> 100", "unit": "µM"}, {"measurement": "GI50", "setting": "MDA-MB-435", "result": "> 100", "unit": "µM"}, {"measurement": "TGI", "setting": "MDA-MB-435", "result": "> 100", "unit": "µM"}, {"measurement": "GI50", "setting": "BT-549 breast", "result": 85.6, "unit": "µM"}, {"measurement": "TGI", "setting": "BT-549 breast", "result": "> 100", "unit": "µM"}, {"measurement": "GI50", "setting": "OVCAR-4 ovarian", "result": "> 100", "unit": "µM"}, {"measurement": "TGI", "setting": "OVCAR-4 ovarian", "result": "> 100", "unit": "µM"}, {"measurement": "GI50", "setting": "HOP-92 NSCLC", "result": "> 100", "unit": "µM"}, {"measurement": "TGI", "setting": "HOP-92 NSCLC", "result": "> 100", "unit": "µM"}, {"measurement": "GI50", "setting": "SK-MEL-2 melanoma", "result": "> 100", "unit": "µM"}, {"measurement": "TGI", "setting": "SK-MEL-2 melanoma", "result": "> 100", "unit": "µM"}, {"measurement": "GI50", "setting": "HOP-62 NSCLC", "result": "> 100", "unit": "µM"}, {"measurement": "TGI", "setting": "HOP-62 NSCLC", "result": "> 100", "unit": "µM"}, {"measurement": "GI50", "setting": "A498 renal", "result": "> 100", "unit": "µM"}, {"measurement": "TGI", "setting": "A498 renal", "result": "> 100", "unit": "µM"}, {"measurement": "GI50", "setting": "SNB-75 CNS", "result": "> 100", "unit": "µM"}, {"measurement": "TGI", "setting": "SNB-75 CNS", "result": "> 100", "unit": "µM"}, {"measurement": "GI50", "setting": "KM12 colon", "result": "> 100", "unit": "µM"}, {"measurement": "TGI", "setting": "KM12 colon", "result": "> 100", "unit": "µM"}, {"measurement": "GI50", "setting": "U251 CNS", "result": "> 100", "unit": "µM"}, {"measurement": "TGI", "setting": "U251 CNS", "result": "> 100", "unit": "µM"}, {"measurement": "GI50", "setting": "OVCAR-5 ovarian", "result": "> 100", "unit": "µM"}, {"measurement": "TGI", "setting": "OVCAR-5 ovarian", "result": "> 100", "unit": "µM"}, {"measurement": "GI50", "setting": "COLO 205 colon", "result": "> 100", "unit": "µM"}, {"measurement": "TGI", "setting": "COLO 205 colon", "result": "> 100", "unit": "µM"}]}]}
